Where two headings read alike, the source gives them in different places.
Columns and labels:
[1] = solubility in a physiological salt solution; assay type: physicochemical
Description: The thus-obtained compound V is dissolved in methanol, and a) when R4 is a methoxyl group, a dilute water solution of sodium hydroxide is added to the solution to hydrolyze it, the thus-reacted solution is washed with ethyl acetate, and the water phase is concentrated, followed by acidifying with 10 % hydrochloric acid or b) when R4 is a benzyloxyl group, hydrogen gas is added to compound V in the presence of palladium on carbon, the used palladium on carbon is removed, and the methanol is distilled off, to obtain a compound represented by the constitutional formula: [drawing 11] wherein R1 and R2 are as defined above, said compound being shown as compound VI. The thus-obtained compound VI is dissolved in a solvent such as acetone, the thus-obtained solution is reacted with a dilute water solution of sodium hydroxide, the thus-reacted solution is filtered to obtain a deposit, the thus-obtained deposit is washed with said solvent, and the thus-washed deposit is dried to obtain a novel lignan compound that is one of the present inventions and that is represented by the constitutional formula: [drawing 12] wherein R1 and R2 are as defined above and R5 is a residual group of the sodium salt of an amino acid, said compound being referred to as compound VII. […]

[2] = solubility in water / purified water; assay type: physicochemical
Description: However, intravenous administrations are necessary to promptly produce drug effects in acute phase symptoms in hepatic lesion, etc., or to lower effective doses. An administration by intravenous drop infusion is not preferable as it causes patients physical and psychological pain. However, due to the low solubility in water (0.15 mg/ml of water), an aqueous injection faces a difficulty in maintaining an effective amount of the compound dissolved in an adequate amount of liquid for a one-time administration, because the amount of liquid per dose of the injection is limited to 10 to 20 ml. To make the amount of liquid adequate for the administration of an amount of the effective compound, a large amount of a solubilizing agent such as polyethylene glycol must be used. However, since this causes adverse effects, such as a hemolysis reaction, the amount used should be limited to a certain extent. Thus the development of a material having medicinal effects equivalent to said compounds and a proper solublity in water, as a substance for intravenous injection, has been sought.
The thus-obtained compound V is dissolved in methanol, and a) when R4 is a methoxyl group, a dilute water solution of sodium hydroxide is added to the solution to hydrolyze it, the thus-reacted solution is washed with ethyl acetate, and the water phase is concentrated, followed by acidifying with 10 % hydrochloric acid or b) when R4 is a benzyloxyl group, hydrogen gas is added to compound V in the presence of palladium on carbon, the used palladium on carbon is removed, and the methanol is distilled off, to obtain a compound represented by the constitutional formula: [drawing 11] wherein R1 and R2 are as defined above, said compound being shown as compound VI. The thus-obtained compound VI is dissolved in a solvent such as acetone, the thus-obtained solution is reacted with a dilute water solution of sodium hydroxide, the thus-reacted solution is filtered to obtain a deposit, the thus-obtained deposit is washed with said solvent, and the thus-washed deposit is dried to obtain a novel lignan compound that is one of the present inventions and that is represented by the constitutional formula: [drawing 12] wherein R1 and R2 are as defined above and R5 is a residual group of the sodium salt of an amino acid, said compound being referred to as compound VII. In this reaction, when instead of a dilute water solution of sodium hydroxide, a dilute water solution of another pharmaceutically acceptable metal hydroxide is used, then a compound is obtained wherein R5 is, instead of the residual group of the sodium salt of amino acid, a pharmaceutically acceptable salt other than the residual group of the sodium salt of the amino acid. Said salts are, for example, a potassium salt and a calcium salt.

[3] = in words, compared with the corresponding derivative of gomisin A

For COc1cc2c(c(OC)c1OC)-c1c(cc3c(c1OC)OCO3)C[C@H](C)[C@@](C)(OC(=O)CCC(=O)NCC(=O)O)C2 [gomisin A glycinosodium succinate], the “solubility in a physiological salt solution” value [1] was 30 mg/10 ml.
In the case of COc1cc2c(c(OC)c1OC)-c1c(cc3c(c1OC)OCO3)C[C@H](C)[C@@](C)(OC(=O)CCC(=O)O)C2 [gomisin Asodium succinate, gomisin A sodium succinate], the “solubility in purified water” value [2] is reported as 30 mg/2 ml and the “solubility relative to the solubility of gomisin A” value ([2]; ratio to gomisin A) is reported as 100 times.
In the case of COc1cc2c(c(OC)c1OC)-c1c(cc(OC)c(OC)c1OC)C[C@](C)(OC(=O)CCC(=O)NCC(=O)O)[C@@H](C)C2 [schizandrin glycinosodium succinate], the “solubility in a physiological salt solution” value [1, 3] is reported as “quite equivalent to the solubility of each corresponding derivative of gomisin A” and the “solubility in purified water” value [2, 3] is reported as “quite equivalent to the solubility of each corresponding derivative of gomisin A”.
In the case of COc1cc2c(c(OC)c1OC)-c1c(cc(OC)c(OC)c1OC)C[C@](C)(OC(=O)CCC(=O)O)[C@@H](C)C2 [schizandrin sodium succinate], the “solubility in purified water” value [2, 3] is reported as “quite equivalent to the solubility of each corresponding derivative of gomisin A”.
